{"source": "patent US6596320B1", "about": "“Method for treating cancer having greater efficacy and reduced adverse effects” (BioNumerik Pharmaceuticals, Inc., priority 2002, dated 2003)", "key": {"MCF7/WT (breast cancer) [1]": {"system": "MCF7/WT (breast cancer)", "assay": "Sequential treatment of MCF7/WT with Taxol followed by CDDP, % cell survival", "assay_type": "cell-based, human", "conditions": "2 hour", "protocol": "(§1) In vitro experiments were conducted to determine the efficacy of platinum/taxane combination therapy and to determine if the order of administration of the agents affected the cytotoxicity. The agents used were cisplatin (CDDP) and paclitaxel (Taxol®®), and the cell line used was MCF7/WT (breast cancer). The results of the experiments are shown below in Tables 1 and 2."}, "MCF7/WT (breast cancer) [2]": {"system": "MCF7/WT (breast cancer)", "assay": "Sequential treatment of MCF7/WT with CDDP followed by Taxol, % cell survival", "assay_type": "cell-based, human", "conditions": "2 hour", "protocol": "as §1"}, "[3]": {"conditions": "cited from earlier work"}}, "data": [{"smiles": "[NH2][Pt]([NH2])([Cl])[Cl]", "note": "[CDDP, cisplatin]", "values": [{"measurement": "% cell survival, Average", "setting": "MCF7/WT (breast cancer) [1]; CDDP 4.25 uM alone", "value": 73, "unit": "%"}, {"measurement": "% cell survival, Average", "setting": "MCF7/WT (breast cancer) [1]; CDDP 8.5 uM alone", "value": 52, "unit": "%"}, {"measurement": "% cell survival, Average", "setting": "MCF7/WT (breast cancer) [2]; CDDP 4.25 uM alone", "value": 71, "unit": "%"}, {"measurement": "% cell survival, Average", "setting": "MCF7/WT (breast cancer) [2]; CDDP 8.5 uM alone", "value": 50, "unit": "%"}]}, {"smiles": "O=S(=O)([O-])CCSSCCS(=O)(=O)[O-].[Na+].[Na+]", "note": "[Dimesna, Disodium 2,2′-dithiobis ethane sulfonate]", "values": [{"measurement": "interference with cytotoxic effects of co-administered antineoplastic agent(s)", "setting": "[3]; co-administration", "value": "not to interfere with the cytotoxic effects"}, {"measurement": "effect on unwanted toxic effects of single agent cisplatin and single agent paclitaxel", "setting": "[3]; human patients", "value": "reduce the unwanted toxic effects"}]}, {"smiles": "CC(=O)O[C@H]1C(=O)[C@@]2(C)[C@H]([C@H](OC(=O)c3ccccc3)[C@]3(O)C[C@H](OC(=O)[C@H](O)[C@@H](NC(=O)c4ccccc4)c4ccccc4)C(C)=C1C3(C)C)[C@]1(OC(C)=O)CO[C@@H]1C[C@@H]2O", "note": "[Taxol ®, paclitaxel]", "values": [{"measurement": "% cell survival, Average", "setting": "MCF7/WT (breast cancer) [1]; Taxol 27 nM alone", "value": 88, "unit": "%"}, {"measurement": "% cell survival, Average", "setting": "MCF7/WT (breast cancer) [1]; Taxol 45 nM alone", "value": 82, "unit": "%"}, {"measurement": "% cell survival, Average", "setting": "MCF7/WT (breast cancer) [2]; Taxol 27 nM alone", "value": 71, "unit": "%"}, {"measurement": "% cell survival, Average", "setting": "MCF7/WT (breast cancer) [2]; Taxol 45 nM alone", "value": 45, "unit": "%"}]}]}
